Results as given in paper PMC5880808, “A lever-like transduction pathway for long-distance chemical- and mechano-gating of the mechanosensitive Piezo1 channel” (Nature Communications, 2018).

Assays:
[1] = biological target: T1, mPiezo1 (Mus musculus, UniProt E2JF22); assay: Whole-cell poking-induced currents; type: cell-based; settings: for effect on poking currents and inactivation: compound applied to the intracellular side; for increase of poking-induced whole-cell currents: mPiezo1-mRuby2-expressing cells, puffing application of 1 mM Jedi, −80 mV
T1 construct: The full-length mPiezo1 has 2547 amino acids in each monomer; expressed in transfected cells; host or cells: HEK293T
T1 sequence (E2JF22 whole entry): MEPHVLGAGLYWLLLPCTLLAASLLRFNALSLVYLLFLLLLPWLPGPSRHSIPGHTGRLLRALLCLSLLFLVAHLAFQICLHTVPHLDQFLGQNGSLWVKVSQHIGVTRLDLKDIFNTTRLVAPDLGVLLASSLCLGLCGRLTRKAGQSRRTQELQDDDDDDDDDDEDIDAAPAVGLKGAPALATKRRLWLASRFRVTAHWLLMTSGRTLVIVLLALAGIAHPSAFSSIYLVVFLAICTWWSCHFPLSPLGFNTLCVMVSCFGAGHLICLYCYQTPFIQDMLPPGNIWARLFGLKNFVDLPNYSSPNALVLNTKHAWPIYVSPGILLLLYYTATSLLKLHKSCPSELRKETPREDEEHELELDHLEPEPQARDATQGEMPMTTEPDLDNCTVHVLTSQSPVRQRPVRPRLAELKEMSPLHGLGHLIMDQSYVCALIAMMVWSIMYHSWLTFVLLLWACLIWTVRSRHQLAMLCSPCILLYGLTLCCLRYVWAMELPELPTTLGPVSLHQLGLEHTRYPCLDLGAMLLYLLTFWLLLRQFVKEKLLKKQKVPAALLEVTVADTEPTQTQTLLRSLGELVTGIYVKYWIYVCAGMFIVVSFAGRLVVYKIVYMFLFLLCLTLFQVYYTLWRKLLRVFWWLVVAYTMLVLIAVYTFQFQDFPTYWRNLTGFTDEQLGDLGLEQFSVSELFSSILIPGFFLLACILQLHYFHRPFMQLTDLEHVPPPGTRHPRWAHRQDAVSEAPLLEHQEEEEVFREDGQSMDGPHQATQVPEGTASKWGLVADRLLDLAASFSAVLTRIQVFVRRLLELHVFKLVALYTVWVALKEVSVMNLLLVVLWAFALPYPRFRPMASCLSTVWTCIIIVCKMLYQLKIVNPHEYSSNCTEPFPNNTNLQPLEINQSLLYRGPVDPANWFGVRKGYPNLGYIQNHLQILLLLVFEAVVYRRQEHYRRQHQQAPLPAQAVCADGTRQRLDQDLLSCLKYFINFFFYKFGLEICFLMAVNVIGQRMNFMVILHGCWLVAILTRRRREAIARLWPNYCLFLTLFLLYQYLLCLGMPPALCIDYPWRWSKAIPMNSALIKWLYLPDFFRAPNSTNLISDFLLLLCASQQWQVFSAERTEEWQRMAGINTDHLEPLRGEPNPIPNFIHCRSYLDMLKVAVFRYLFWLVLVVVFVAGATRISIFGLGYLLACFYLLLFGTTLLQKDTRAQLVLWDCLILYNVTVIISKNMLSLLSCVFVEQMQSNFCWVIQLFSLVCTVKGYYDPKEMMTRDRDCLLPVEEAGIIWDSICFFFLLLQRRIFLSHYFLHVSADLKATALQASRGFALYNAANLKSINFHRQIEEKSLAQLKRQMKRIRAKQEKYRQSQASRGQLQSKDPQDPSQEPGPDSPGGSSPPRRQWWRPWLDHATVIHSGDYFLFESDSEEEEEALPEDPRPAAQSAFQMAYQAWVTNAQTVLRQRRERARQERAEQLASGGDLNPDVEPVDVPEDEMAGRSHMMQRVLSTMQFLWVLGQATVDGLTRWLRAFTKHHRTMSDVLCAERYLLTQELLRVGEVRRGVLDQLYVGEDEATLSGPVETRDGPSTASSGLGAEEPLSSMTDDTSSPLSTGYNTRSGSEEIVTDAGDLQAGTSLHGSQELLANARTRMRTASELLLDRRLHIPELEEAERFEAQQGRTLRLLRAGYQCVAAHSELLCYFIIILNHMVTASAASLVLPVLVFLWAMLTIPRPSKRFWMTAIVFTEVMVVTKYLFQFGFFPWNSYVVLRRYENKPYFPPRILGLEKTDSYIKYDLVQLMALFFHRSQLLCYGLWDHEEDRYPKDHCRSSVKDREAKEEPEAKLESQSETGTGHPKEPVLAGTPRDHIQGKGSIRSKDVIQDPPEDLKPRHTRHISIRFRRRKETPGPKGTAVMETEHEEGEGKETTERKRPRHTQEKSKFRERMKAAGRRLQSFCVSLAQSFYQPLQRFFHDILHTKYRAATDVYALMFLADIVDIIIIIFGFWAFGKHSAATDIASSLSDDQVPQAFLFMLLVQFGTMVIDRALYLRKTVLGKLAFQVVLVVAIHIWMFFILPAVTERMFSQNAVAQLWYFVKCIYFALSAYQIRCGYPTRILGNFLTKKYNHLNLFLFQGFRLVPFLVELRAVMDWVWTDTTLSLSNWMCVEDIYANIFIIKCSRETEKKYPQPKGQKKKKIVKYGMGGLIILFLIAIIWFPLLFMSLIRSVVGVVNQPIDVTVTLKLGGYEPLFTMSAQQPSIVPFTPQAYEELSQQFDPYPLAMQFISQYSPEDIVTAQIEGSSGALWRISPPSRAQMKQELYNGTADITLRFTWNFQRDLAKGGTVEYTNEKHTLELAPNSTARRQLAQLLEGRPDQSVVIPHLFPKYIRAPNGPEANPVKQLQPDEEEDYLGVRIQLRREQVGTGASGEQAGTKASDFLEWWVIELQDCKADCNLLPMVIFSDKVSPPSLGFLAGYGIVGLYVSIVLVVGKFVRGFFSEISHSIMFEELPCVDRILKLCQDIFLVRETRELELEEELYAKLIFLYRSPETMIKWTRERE
Protocol: (§1) Protocols for HEK293T cell culture, transient transfection, and patch-clamp experiments with an Axopatch 200B amplifier (Axon Instruments) or HEKA EPC10 were essentially similar to how previously described[6],[8]. […] The extracellular solution was composed of (in mM) 133 NaCl, 3 KCl, 2.5 CaCl2, 1 MgCl2, 10 HEPES (pH 7.3 with NaOH), and 10 glucose. All experiments were carried out at room temperature. Currents were sampled at 20 kHz, filtered at 2 kHz using the Clampex 10.4 software (Axon Instruments) or Patchmaster software. Leak currents before mechanical stimulations were subtracted offline from the current traces.
Mechanical stimulation was delivered to the cell during the patch-clamp recording at an angle of 80° using a fire-polished glass pipette (tip diameter 3–4 μm) as previously described[5],[6]. Downward movement of the probe toward the cell was driven by a Clampex-controlled piezo-electric crystal micro-stage (E625 LVPZT Controller/Amplifier; Physik Instrument). […] The poking distance shown in Fig. 3 includes the initial distance between the poking pipette and the cell, which cannot be accurately controlled, and the applied poking distance controlled by the Clampex-controlled piezo-electric crystal micro-stage. Thus, the actual poking distance on the cell membrane should be equal to the applied poking distance minus the initial distance between the poking pipette and the cell under recording. In the step-wise poking experiment, the patch was readily lost when the cell was broken at the end of the poking.
Stock solutions of Jedi1 (100 mM), Jedi2 (100 mM), and Yoda1 (30 mM) were solubilized in DMSO and diluted to the desired final concentrations as indicated in the figure legends using external or internal solutions. In Figs. 3a, 5b, and 6e, the compound solutions were puffed onto the cells using a multichannel perfusion system (MPS-2, World Precision Instruments) while continuously recording using a gap-free mode. In other conditions, the compounds were directly added to the recording chamber or pipette solution, and the currents were recorded within 10 min. In Figs. 5b and 6e, we used the Piezo1-KO-HEK cell line in which the endogenous Piezo1 gene is disrupted.

[2] = biological target: T2, C-terminal extracellular domain (CED; 2214–2457) (Mus musculus, UniProt E2JF22); assay: SPR binding to immobilized purified protein; settings: without C12E10 detergent
T2 construct: C-terminal extracellular domain (CED; 2214–2457); made in house
T2 sequence (E2JF22 2214-2457): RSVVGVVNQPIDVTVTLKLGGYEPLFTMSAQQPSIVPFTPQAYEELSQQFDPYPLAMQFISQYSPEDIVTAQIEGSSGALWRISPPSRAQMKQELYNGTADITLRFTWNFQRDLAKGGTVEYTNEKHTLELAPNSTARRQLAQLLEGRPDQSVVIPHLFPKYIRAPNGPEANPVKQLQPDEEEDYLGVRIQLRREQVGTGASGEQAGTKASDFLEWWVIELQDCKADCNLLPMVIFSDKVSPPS
Protocol: Real-time binding and analysis by SPR were conducted on BIAcore T200 instrument (GE Healthcare) at 25 °C. Proteins were immobilized on a research-grade CM5 sensor chip by amine-coupling methods. During the pH scouting process, 10 mM sodium acetate at various pH including 4.0, 4.5, 5.0, and 5.5 and protein concentrations varying between 10 and 100 μg/ml were screened before immobilization. Except pH 4.5 for mPiezo1-(1–2190), pH 5.0 was used for all other proteins, including mPiezo1, CED, Δ15-16, and Δ19-20. All proteins were diluted to 50 μg/ml in buffer containing 10 mM sodium acetate at the abovementioned pH, 0.026% C12E10 detergent, and 150 mM NaCl, except that the soluble CED proteins, which were diluted in 150 mM NaCl without detergent. During the immobilization process, the CM5 sensor was activated with NHS first, allowing the amine-containing proteins to be coupled to the sensor through NHS. Each CM5 sensor had 4 flow cells, and the flow cells 1 and 3 were often left blank as a reference. Diluted Piezo1 wild-type or mutant proteins (50 μg/ml) in their respective buffers were immobilized on the flow cell 2 or flow cell 4 to the similar level as indicated by the “response bound” parameter.
For data collection, compounds at various concentrations were diluted in a running buffer containing 1× PBS, 0.026% detergent C12E10, and 0.05% Surfactant P20 (GE Healthcare Bio-Sciences AB) and injected over the flow cells with at a 30 μl/min flow rate. The proteins and the compounds were allowed to associate for 180 s and then dissociate for 180 s. Data were analyzed with the BIAcore T200 evaluation software by fitting to a 1:1 affinity-binding model.

[3] = biological target: T3, mPiezo1 L1342A/L1345A mutant (Mus musculus, UniProt E2JF22, L1342A/L1345A); assay: Patch clamp (chemical-induced and stretch-induced currents), L1342A/L1345A mutant; type: cell-based; settings: Piezo1-KO-HEK cells for chemical-induced currents
T3 construct: The full-length mPiezo1 has 2547 amino acids in each monomer; expressed in transfected cells
T3 sequence (E2JF22 whole entry L1342A/L1345A): as the sequence (E2JF22 whole entry) above, with L1342A, L1345A counted along it
Protocol: as §1
Stock solutions of Jedi1 (100 mM), Jedi2 (100 mM), and Yoda1 (30 mM) were solubilized in DMSO and diluted to the desired final concentrations as indicated in the figure legends using external or internal solutions. […] In other conditions, the compounds were directly added to the recording chamber or pipette solution, and the currents were recorded within 10 min. […]
Stretch-activated currents were recorded in the cell-attached patch-clamp configuration as previously described. […] Stretch-activated channels were recorded at a holding potential of −80 mV with pressure steps from 0 to −100 mm Hg (−10 mm Hg increments), and 4–11 recording traces were averaged per cell for analysis. […]

[4] = compound applied to the extracellular side

Structure (SMILES)	inactivation tau of poking-induced currents [1, 4]	poking-induced maximal currents (Imax) [1, 4]	effect on poking currents and inactivation [1]	increase of poking-induced whole-cell currents [1]	binding to purified CED proteins (SPR) [2]	inward currents, stretching-current relationship and P50 of the L1342A/L1345A mutant [3]
Cc1oc(-c2ccccc2)cc1C(=O)O [Jedi1]	slowed the inactivation tau	significantly enhanced	had no effect	3.8 ± 0.5 folds	none	neither elicited inward currents
Cc1oc(-c2cccs2)cc1C(=O)O [Jedi2]	–	–	–	5.4 ± 0.7 folds	none	–
Clc1cccc(Cl)c1CSc1nnc(-c2cnccn2)s1 [Yoda1, reference compound]	–	–	remained effective in enhancing the poking currents and slowing the inactivation	–	none	neither elicited inward currents
